Assay results as given in patent US11407781B2, “Equatorially modified polymer linked multimers of guanosine-3′, 5′-cyclic monophosphates” (GRAYBUG VISION, INC., priority 2016, dated 2022).
Marks after values point to notes of the source that are not given here.

How the values were obtained:
[1] = Determination of lipophilicity by RP-18 HPLC retention (log k′g); format: physicochemical; conditions: RP-18 reversed phase HPLC, gradient elution, ion pair chromatography with triethylammonium cation
Excerpt: Lipophilicity information is thus often only obtained by fragment analysis and corresponding calculations.
An established HPLC method, which is based on retention data on RP-18 reversed phase silica during gradient elution, was used for the determination of lipohilicity.
Instead of log P the method yields the descriptor log k′g, ranking analytes according to their lipophilicity on a logarithmic scale as well. Since charged molecules such as cyclic nucleotides have only hardly any retention on reversed phases, ion pair chromatography with the lipophilic triethylammonium cation is used.

[2] = test system: primary rod-like cells derived from the rd1 mutant mouse; experiment: Primary rod-like cells: cell death by Ethidium Homodimer assay; conditions: compared to Rp-8-Br-cGMPS and Rp-8-Br-PET-cGMPS; 0.1 μM and 1 μM, 24 hours (FIG. 2)
Description: Legend: Primary rod-like cells derived from the rd1 mutant mouse undergo spontaneous cell death 11 days after differentiation. Rod-like cells were exposed to compounds at day 10 of culture and analyzed 24 hours later. A.: 0.1 μM concentration of tested compounds. B.: 1 μM concentration of tested compounds. Percentage of dying cells was evaluated by Ethidium Homodimer assay. Untreated cells are shown as control sample (black bar). Reference compounds Rp-8-Br-cGMPS and Rp-8-Br-PET-cGMPS are shown as dashed bars. Data are shown as means±SD from at least three biological replicates.
Primary rod-like cells were obtained by isolating stem cells from the ciliary epithelium of murine eyes.^15 The cells are cultured until they form neurospheres in DMEM/F12 with FGF (20 ng/ml), Heparin (2 μg/ml), N2 (1x), Glucose (0.6%), HEPES (5 μM) and 1% Penicillin/Streptomycin. Single neurospheres are picked and plated onto glass slides coated with ECM in the same medium as before with the exception of reduced FGF concentration (10 ng/ml) to induce adhesion. […] To assess cell death, microphotographs were taken from three different slides for each compound concentration and the total number of cells, as well as the number of dying Ethidium Homodimer positive cells, were counted in each picture. […]

[3] = test system: photoreceptors of rd1 explants; experiment: Retinal explants: photoreceptor cell death by TUNEL stain; format: cell-based, mouse; conditions: 50 μM
Description: Legend: The animals at the age of postnatal day 5 (PN5) were killed by decapitation and retinas were dissected out with retinal pigment epithelium attached as described previously.^9 The retinas were flattened out on the membranes of commercially available 6-well culture inserts, after which 1.5 ml of a custom made culturing medium was added to each well. These explants were then kept in culture for two days without any treatment after which the test analogue of the invention at the desired concentration was added at a medium change at PN7 (“7” in Figure). There was then a new medium change at PN9 (“9” in Figure), with same concentration of analogue of the invention, upon which the cultures were kept until PN11 (“11” in Figure). At this time point the experiment was finished by a fixation procedure. This paradigm is therefore called PN5+2+4. […]
Legend: Effects of selected analogues at given concentrations of the invention on the cell death of photoreceptors of rd1 explants. The cell death was assessed by so called TUNEL stain on fixated and sectioned material, after which the number of dying cells was counted and analysed, and compared with that from untreated rd1 explants. In order to allow more direct comparisons between the different analogues and concentrations a ratio of treated/untreated specimens was calculated. […]

SMILES | log k′g [1] | further results
Cc1ccc(-c2cn3c(=O)c4nc(Br)n([C@@H]5O[C@@H]6COP(O)(=S)O[C@H]6[C@H]5O)c4nc3[nH]2)cc1 (single isomer, unassigned) [Compound 22, 8-Bromo-(4-methyl-β-phenyl-1,N^2-etheno)guanosine-3′,5′-cyclic monophosphorothioate, Rp-isomer] | 3.134 | 
O=c1c2nc(Br)n([C@@H]3O[C@@H]4CO[P@@](=O)(S)O[C@H]4[C@H]3O)c2nc2[nH]c(-c3ccc4ccccc4c3)cn12 (single isomer, unassigned) [Compound 24, 8-Bromo-(2-naphthyl-1,N^2-etheno)guanosine-3′,5′-cyclic monophosphorothioate, Rp-isomer] | 3.426 | 
Nc1nc2c(nc(Sc3ccccc3N)n2[C@@H]2O[C@@H]3CO[P@@](=O)(S)O[C@H]3[C@H]2O)c(=O)[nH]1 (single isomer, unassigned) [Compound 30, 8-(2-Aminophenylthio)guanosine-3′,5′-cyclic monophosphorothioate, Rp-isomer] | 1.974 | 
Nc1nc2c(nc(SCC(=O)Nc3ccccc3)n2[C@@H]2O[C@@H]3COP(O)(=S)O[C@H]3[C@H]2O)c(=O)[nH]1 (single isomer, unassigned) [Compound 31, 8-Phenylamidomethylthioguanosine-3′,5′-cyclic monophosphorothioate, Rp-isomer] | 2.105 | 
O=C(CSc1nc2c(=O)n3cc(-c4ccccc4)[nH]c3nc2n1[C@@H]1O[C@@H]2COP(O)(=S)O[C@H]2[C@H]1O)Nc1ccccc1 (single isomer, unassigned) [Compound 33, β-Phenyl-1,N^2-etheno-8-phenylamidomethylthioguanosine-3′,5′-cyclic monophosphorothioate, Rp-isomer] | 3.411 | 
O=c1c2nc(Sc3ccc(O)cc3)n([C@@H]3O[C@@H]4COP(O)(=S)O[C@H]4[C@H]3O)c2nc2[nH]c(-c3ccccc3)cn12 (single isomer, unassigned) [Compound 34, 8-(4-Hydroxyphenylthio)-β-phenyl-1,N^2-ethenoguanosine-3′,5′-cyclic monophosphorothioate, Rp-isomer] | 3.078 | 
Nc1nc2c(ncn2[C@@H]2O[C@@H]3COP(O)(=S)O[C@H]3[C@H]2O)c(=O)[nH]1 (some centres unmarked) [A, Rp-cGMPS, reference compound] | 0.894 | 
Nc1nc2c(nc(Br)n2[C@@H]2O[C@@H]3COP(O)(=S)O[C@H]3[C@H]2O)c(=O)[nH]1 (some centres unmarked) [B, Rp-8-Br-cGMPS, reference compound] | 1.285 | 
O=c1c2nc(Br)n([C@@H]3O[C@@H]4CO[P@@](O)(=S)O[C@H]4[C@H]3O)c2nc2[nH]c(-c3ccccc3)cn12 [C, Rp-8-Br-PET-cGMPS, reference compound] | 2.831 | 
Nc1nc2c(nc(SCC(=O)NCCOCCOCCOCCOCCOCCOCCOCCOCCNC(=O)CSc3nc4c(=O)[nH]c(N)nc4n3[C@@H]3O[C@@H]4COP(O)(=S)O[C@H]4[C@H]3O)n2[C@@H]2O[C@@H]3COP(O)(=S)O[C@H]3[C@H]2O)c(=O)[nH]1 (some centres unmarked) [Compound 1, Guanosine-3′,5′-cyclic monophosphorothioate[Rp]-[8-thiomethylamido-(octaethoxy)-ethylamidomethylthio-8]-guanosine-3′,5′-cyclic monophosphorothioate[Rp]] | 2.039* | protective effect against cell death in primary rod-like cells [2]: significantly improved potencies to prevent cell death
O=C(CSc1nc2c(=O)n3cc(-c4ccccc4)[nH]c3nc2n1[C@@H]1O[C@@H]2COP(O)(=S)O[C@H]2[C@H]1O)NCCOCCOCCOCCOCCOCCOCCOCCOCCNC(=O)CSc1nc2c(=O)n3cc(-c4ccccc4)[nH]c3nc2n1[C@@H]1O[C@@H]2COP(O)(=S)O[C@H]2[C@H]1O (stereo partly drawn) [Compound 2, β-Phenyl-1,N^2-ethenoguanosine-3′,5′-cyclic monophosphorothioate[Rp]-[8-thiomethylamido-(octaethoxy)-ethylamidomethylthio-8]-β-phenyl-1,N^2-ethenoguanosine-3′,5′-cyclic monophosphorothioate[Rp]] | 3.236* | protective effect against cell death in primary rod-like cells [2]: significantly improved potencies to prevent cell death
O=c1c2nc(Br)n(C3OC4COP(O)(=S)OC4C3O)c2nc2[nH]c(-c3ccsc3)cn12 (centres unmarked) [Compound 23, 8-Bromo-(3-thiophen-yl-1, N^2-etheno)guanosine-3′, 5′-cyclic monophosphorothioate] | 2.746 | 
O=c1c2nc(Br)n([C@@H]3O[C@@H]4CO[P@@](O)(=S)O[C@H]4[C@H]3O)c2nc2[nH]c(-c3ccccc3)cn12 [Rp-8-Br-PET-cGMPS] |  | photoreceptor cell death, ratio of treated/untreated specimens ([3]; PN5+2+4 paradigm, TUNEL stain, untreated = 1.0): about 0.78; reduction of photoreceptor cell death ([3]; versus untreated): more than 20%
Nc1nc2c(ncn2[C@@H]2O[C@@H]3COP(=O)(O)O[C@H]3[C@H]2O)c(=O)[nH]1 [cGMP, guanosine-3′,5′-cyclic monophosphate, reference compound] | 0.77 | 
